Measured values published in patent publication US20120095024A1, “TOLUIDINE SULFONAMIDES AND THEIR USE” (Elara Pharmaceuticals GmbH, priority 2008, published 2012).

Key:
[1] = tested on: HIF mediated transcription; assay: Inhibition of activation of HIF mediated transcription under hypoxic conditions (CellSensor HRE-bla HCT-116); type: cell-based; conditions: Homo sapiens; HRE-bla HCT-116 cells, deferoxamine-induced hypoxia, 24 h
Protocol: Inhibition of an activated HIF signaling response under chemically-induced hypoxic conditions due to compound treatment was determined using the CellSensor® HRE-bla HCT-116 stably transfected reporter cell line from Invitrogen according to the manufacturer's instructions. HIF is a transcriptional factor composed of the constitutively expressed HIF1β subunit and one of three HIFα subunits (HIF1α, HIF2α, HIF3α). This assay is responsive towards HIFa activity in general. In one example, HIF-1, when stabilized by hypoxic conditions, upregulates several genes to promote cell survival in low-oxygen conditions. These include glycolysis enzymes, which allow ATP synthesis in an oxygen-independent manner, and vascular endothelial growth factor (VEGF), which promotes angiogenesis. HIF-1 acts by binding to HIF-responsive elements (HREs) in promoters that generally contain the sequence NCGTG.
Cells were maintained as described previously and seeded into 384-well, clear-bottom plates (Corning 3712) at 15000 cells/well in 32 μl assay medium (Opti-MEM [Invitrogen], 0.5% FBS, 100 U/ml penicillin, 100 μg/ml streptomycin, 0.1 mM non-essential amino acids [NEAA], 1 mM sodium pyruvate, 5 mM HEPES [pH 7.3]). Following a 2 h incubation period, compounds (4 μl) were subsequently added to the cells at 10× concentrations in 5% DMSO and incubated under normal conditions for 30 min. To induce hypoxic conditions, 4 μl of a 2 mM deferoxamine (DFO) solution was added to the cells followed by 24 h incubation under standard assay conditions (as described). Control wells included wells containing only medium (no cells) and wells treated with 0.5% DMSO instead of compound.
Prior to the readout, the Substrate Loading Solution was prepared as described in the manufacturer's protocol and 10 μl added to each well. Following a further 2 h incubation period at room temperature and in the dark, fluorescence was measured at two wavelengths (blue channel: ex. 409 nm, em. 460 nm; green channel: ex. 409 nm, em. 530 nm) on a PerkinElmer Envision HTS. For the analysis, the average signal of the cell-free wells at 460 nm and 530 nm was first subtracted from the blue and green channel data, respectively. The blue/green emission ratios were then calculated for each well, dividing the background-corrected blue emission values by the background-corrected green emission values. IC50 values were determined from these ratios using GraphPad Prism (Prism 5, GraphPad software, Inc.).

tubulin = target: T1, tubulin (Sus scrofa, UniProt P02550+P02554); assay: Inhibition of in vitro tubulin polymerization; type: biochemical, porcine; conditions: final absorbance 340 nm at 90 min
T1 construct: prepared in-house from porcine brain using a standard procedure involving cycles of polymerization/de-polymerization; from tissue; host or cells: porcine brain
T1 sequence (P02550 whole entry): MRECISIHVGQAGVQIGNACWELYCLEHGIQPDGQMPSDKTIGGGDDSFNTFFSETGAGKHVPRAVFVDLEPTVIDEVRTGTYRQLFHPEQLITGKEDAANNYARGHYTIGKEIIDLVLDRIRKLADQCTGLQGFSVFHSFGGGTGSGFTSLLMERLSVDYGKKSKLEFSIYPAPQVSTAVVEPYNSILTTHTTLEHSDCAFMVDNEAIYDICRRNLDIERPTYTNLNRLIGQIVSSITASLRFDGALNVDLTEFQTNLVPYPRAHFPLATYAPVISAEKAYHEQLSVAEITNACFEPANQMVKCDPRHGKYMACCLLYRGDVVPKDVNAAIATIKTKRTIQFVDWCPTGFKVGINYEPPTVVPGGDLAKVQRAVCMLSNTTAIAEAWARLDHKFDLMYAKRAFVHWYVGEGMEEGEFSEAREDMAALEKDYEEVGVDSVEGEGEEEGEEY
T1 sequence (P02554 whole entry): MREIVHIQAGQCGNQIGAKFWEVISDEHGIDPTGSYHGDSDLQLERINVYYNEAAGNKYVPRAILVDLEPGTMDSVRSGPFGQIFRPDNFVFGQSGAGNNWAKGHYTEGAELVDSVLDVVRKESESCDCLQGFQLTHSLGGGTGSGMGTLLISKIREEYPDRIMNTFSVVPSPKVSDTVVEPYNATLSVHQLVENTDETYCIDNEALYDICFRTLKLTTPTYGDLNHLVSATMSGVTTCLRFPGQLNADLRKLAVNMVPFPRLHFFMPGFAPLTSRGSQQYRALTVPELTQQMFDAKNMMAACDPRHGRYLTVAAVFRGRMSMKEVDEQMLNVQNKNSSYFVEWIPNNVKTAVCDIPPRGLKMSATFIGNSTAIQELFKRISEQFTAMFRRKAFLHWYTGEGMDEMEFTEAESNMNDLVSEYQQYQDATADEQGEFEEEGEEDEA
Protocol: To assess the degree of inhibition of in vitro tubulin polymerization, a tubulin solution (prepared in-house from porcine brain using a standard procedure involving cycles of polymerization/de-polymerization, see Castoldi & Popov (2003) Protein Expr. Purif. 32(1): 83-88) was incubated with varying concentrations of compounds under polymerizing conditions and kinetic experiments performed to determine the amount of polymerization (as measured by changes in OD at 340 nm) taking place over a 90 min period.
Compound solutions were diluted in double-distilled water to yield final 10× solutions containing 5% DMSO. 5 μl solutions were then added to the wells on a 384-well clear-bottom plate (Corning #3711, Corning Inc.) in preparation for the addition of tubulin. The tubulin solution (19.6 mg/ml, in 80 mM K-PIPES [pH 6.8], 1 mM MgCl2, 1 mM EGTA) was re-suspended to a final concentration of 4 mg/ml with ice cold G-PEM buffer (80 mM PIPES [pH 6.8], 2 mM MgCl2, 0.5 mM EGTA, 10% glycerol, 1 mM GTP) and maintained on ice for at least 1 min. 50 μl was then added to the pre-dispensed compound solutions, the plate orbital shaken on a medium setting for 5 s, and the first measurement begun immediately.
Experiments were carried out on a Safire^2™ monochromator (Tecan) preset to a stable temperature of 37° C.; the degree of polymerization was determined by measuring the absorbance of the solutions at 340 nm every minute over the 90 min cycle. Reported inhibition values were based on the final absorbance at 90 min and calculated with reference to a vehicle control (0.5% DMSO) using the minimum and maximum signals obtained for this sample.

MCF7 cells = assay: Cell proliferation assay (ATPlite), MCF-7; type: cell-based, human; conditions: Homo sapiens, inhibition of cell proliferation, 72 h
Method in brief: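 Cells seeded (MCF-7 2000/well, HG-1 1000/well in RPMI with 2 ng/ml IL-6), then after 24 h exposed to compound at 0.5% DMSO final for 72 h. Proliferation read as ATP luminescence (ATPlite); EC50 calculated from the dose-response.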

HG1 cells = assay: Cell proliferation assay (ATPlite), HG-1; type: cell-based; conditions: inhibition of cell proliferation, 72 h
Protocol: MCF-7 human breast adenocarcinoma cells and HL-60 acute promyelocytic leukaemia cells were obtained from ATCC (LGC Promochem). HG-1 multiple myeloma cells were obtained from Dr. D. Hose (DKFZ Heidelberg). The CellSensor® HRE-bla HCT116 cell line (colorectal carcinoma) was obtained from Invitrogen.
Cells were grown under humidified 95% air, 5% CO2 at 37° C. in Dulbecco's modified Eagle's medium (DMEM: MCF-7) or RPMI 1640 medium (RPMI: HL-60, HG-1) supplemented with 10% fetal bovine serum (FBS), 100 U/ml penicillin and 100 μg/ml streptomycin, 2 mM L-glutamine, and 2 ng/ml IL-6 (for the HG-1 cell line only). The HCT116 cell line was grown under the same atmospheric conditions in McCoy's 5A medium supplemented with 10% FBS and penicillin/streptomycin as above, in addition to blasticidin as a selection marker at a final concentration of 5 μg/ml.
Cell proliferation experiments were carried out in 96-well tissue culture plates with seeding of 2000 cells/well (MCF-7) or 1000 cells/well (HL-60, HG-1) in 100 μl of the relevant medium. Cells were subsequently incubated under the conditions mentioned for 24 h prior to addition of compounds.
For the determination of compound EC50 values, 10 μl compounds at 11× concentrations in 5.5% DMSO were added to the wells at various concentrations yielding a final constant percentage of 0.5% DMSO at the desired 1× compound concentration. As a positive control, cells were treated with 5.5% DMSO. The cells were then incubated for a further 72 h prior to the measurement.
To determine the degree of inhibition of cell proliferation, cells were treated with ATPlite solution according to the manufacturer's instructions (PerkinElmer, ATPlite 1-step Luminescence ATP Detection Assay System) and luciferase readout measured on an Envision HTS multilabel plate reader (PerkinElmer) in luminescence mode according to established protocols. Raw data were imported into an ActivityBase database (IDBS, ID Business Solutions) and EC50 values calculated using the IDBS program ActivityBase XE. Table 2A and 2B show the IC50 values obtained in the above-outlined cell proliferation assay for exemplary compounds of the invention.

[2] = tested on: estrogen receptor (ER)-mediated transcriptional activity; assay: Inhibition of estrogen receptor (ER) signaling, ERE-tk-luc transfection assay in MCF-7 cells; type: cell-based; conditions: Homo sapiens, MCF7, ERE-tk-luc luciferase readout, 24 h
Protocol: To determine the effect of the compounds on estrogen receptor (ER)-mediated transcriptional activity a transfection assay using the MCF-7 cell line was performed. A luciferase-coupled ERE-tk-luc construct was obtained from Dr. G. Reid (EMBL).
In brief, MCF-7 cells were maintained as described previously and seeded on the first experimental day at a concentration of 3500 cells/well in 100 μl medium and incubated under standard conditions for 24 h. Following this initial incubation period, transfection was carried out using 5 ng of the ERE-tk-luc construct (per well) and Exgene 500 transfection reagent (Fermentas) in a final buffered solution containing 150 mM NaCl and 20 mM Tris pH 8.4. The plates were then maintained for 3-4 hours until cell culture conditions in the incubator before compounds were added at 11× concentrations to yield the final desired compound concentrations in 0.5% DMSO (in the same manner as for the proliferation assays described previously).
After an additional 24 h incubation period the degree of inhibition of ER-signaling was determined via a luciferase readout. Cells were treated with Britelite™ plus solution according to the manufacturer's instructions (PerkinElmer, britelite plus, Ultra-High Sensitivity Luminescence Reporter Gene Assay System) and luciferase levels measured on an Envision HTS multilabel plate reader (PerkinElmer) in luminescence mode according to established protocols. Raw data were imported into an ActivityBase database (IDBS, ID Business Solutions) and IC50 values calculated using the IDBS program ActivityBase XE.

caspase-3/7 = assay: Activation of apoptosis, Caspase-Glo 3/7 in HG-1 cells; type: cell-based; conditions: caspase-3/7 activation, 24 h
Protocol: Activation of caspase-3/7 signal following treatment with test compounds was carried out using a Caspase-Glo® 3/7 kit (Promega). In brief, HG-1 cells were seeded at a concentration of 1000 cells/well in 50 μl medium into 96-well plates and incubated for 24 h under the conditions described previously. Compounds at various concentrations were then added to the wells (at all final concentrations 0.5% DMSO) and incubated for a further 24 h period. The plates were subsequently removed from the incubator and allowed to equilibrate to room temperature, after which 50 μl Caspase-Glo reagent was added to all wells, the plate shaken at 300 rpm for 30 s, and luminescence measured after a 30 min incubation period on an Envision HTS (PerkinElmer).

| SMILES | EC50 [1] [nM] | inhibition at 10 µM (tubulin) [%] | EC50 (MCF7 cells) [nM] | EC50 (HG1 cells) [nM] | IC50 [2] [nM] | EC50 (caspase-3/7) [nM] |
| --- | --- | --- | --- | --- | --- | --- |
| Cc1ccc(S(=O)(=O)Nc2cc(-c3cscc3C)ccc2C)cc1 [Example 23, 4-Methyl-N-[2-methyl-5-(4-methyl-thiophen-3-yl)-phenyl]-benzenesulfonamide] | < 500 | > 50 | < 500 |  |  |  |
| Cc1ccc(S(=O)(=O)Nc2cc(-n3cccc3)ccc2C)cc1 [Example 15, 4-Methyl-N-(2-methyl-5-pyrrol-1-yl-phenyl)-benzenesulfonamide] |  |  | < 500 | < 500 | < 500 |  |
| Cc1ccc(S(=O)(=O)Nc2cc(-c3ccc(C#N)cc3)ccc2C)cc1 [Example 60, N-(4′-Cyano-4-methyl-biphenyl-3-yl)-4-methyl-benzenesulfonamide] |  | < 20 | < 500 |  | < 500 | < 500 |
| COc1ccc(S(=O)(=O)Nc2cc(-c3cc(C#N)cs3)ccc2C)cc1 [Example 56, N-[5-(4-Cyano-thiophen-2-yl)-2-methyl-phenyl]-4-methoxy-benzenesulfonamide] |  | > 50 | < 500 |  |  | < 500 |
| COc1ccc(S(=O)(=O)Nc2cc(-c3c(C)noc3C)ccc2C)cc1 [Example 16, N-[5-(3,5-Dimethyl-isoxazol-4-yl)-2-methyl-phenyl]-4-methoxy-benzenesulfonamide] |  | 20 to 50 | < 500 |  |  |  |
| Cc1ccc(S(=O)(=O)Nc2cc(-c3ccc(C)s3)ccc2C)cc1 [Example 11, 4-Methyl-N-[2-methyl-5-(5-methyl-thiophen-2-yl)-phenyl]-benzenesulfonamide] |  | 20 to 50 | < 500 |  |  |  |
| COc1ccc(S(=O)(=O)Nc2cc(-c3csc(C#N)c3)ccc2C)cc1 [Example 73, N-[5-(5-Cyano-thiophen-3-yl)-2-methyl-phenyl]-4-methoxy-benzenesulfonamide] | < 500 |  | < 500 | < 500 |  |  |
| COc1ccc(S(=O)(=O)Nc2cc(-c3ccc(C#N)cc3)ccc2C)cc1 [Example 63, N-(4′-Cyano-4-methyl-biphenyl-3-yl)-4-methoxy-benzenesulfonamide] |  | < 20 | < 500 |  |  | < 500 |
| Cc1ccc(S(=O)(=O)Nc2cc(-c3ccc(C#N)c(C)c3)ccc2C)cc1 [Example 72, N-(4′-Cyano-4,3′-dimethyl-biphenyl-3-yl)-4-methyl-benzenesulfonamide] |  | < 20 | < 500 |  | < 500 |  |
| Cc1ccc(S(=O)(=O)Nc2cc(-c3ccsc3)ccc2C)cc1 [Example 8, 4-Methyl-N-(2-methyl-5-thiophen-3-yl-phenyl)-benzenesulfonamide] | < 500 |  | < 500 | < 500 |  |  |
| Cc1ccc(S(=O)(=O)Nc2cc(-n3cnnc3)ccc2C)cc1 [Example 22, 4-Methyl-N-(2-methyl-5-[1,2,4]triazol-4-yl-phenyl)-benzenesulfonamide] |  |  | 1000 to 10000 | < 500 |  |  |
| Cc1ccc(S(=O)(=O)Nc2cc(-c3ccccn3)ccc2C)cc1 [Example 19, 4-Methyl-N-(2-methyl-5-pyridin-2-yl-phenyl)-benzenesulfonamide] |  |  | 500 to 1000 | < 500 |  |  |
| COc1ccc(S(=O)(=O)Nc2cc(-c3ccc(C#N)s3)ccc2C)cc1 [Example 51, N-[5-(5-Cyano-thiophen-2-yl)-2-methyl-phenyl]-4-methoxy-benzenesulfonamide] | < 500 |  | < 500 | < 500 |  | < 500 |
| Cc1ccc(S(=O)(=O)Nc2cc(-c3ccc(C)o3)ccc2C)cc1 [Example 3, 4-Methyl-N-[2-methyl-5-(5-methyl-furan-2-yl)-phenyl]-benzenesulfonamide] | < 500 | > 50 | < 500 |  |  |  |
